Results as given in PubChem BioAssay (NCI).
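GI50 marks 50% less growth. TGI: concentration producing complete growth inhibition.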

How the values were obtained:
Assay in all cases: inhibition of tumour cell growth, NCI panel, 384-well format
786-0 renal = tested on: 786-0 renal
A498 renal = tested on: A498 renal
A549 NSCLC = tested on: A549 NSCLC
ACHN renal = tested on: ACHN renal
BT-549 breast = tested on: BT-549 breast
CAKI-1 renal = tested on: CAKI-1 renal
COLO 205 colon = tested on: COLO 205 colon
DU-145 prostate = tested on: DU-145 prostate
EKVX NSCLC = tested on: EKVX NSCLC
HCC-2998 colon = tested on: HCC-2998 colon
HCT-116 colon = tested on: HCT-116 colon
HCT-15 colon = tested on: HCT-15 colon
HL-60(TB) leukemia = tested on: HL-60(TB) leukemia
HOP-92 NSCLC = tested on: HOP-92 NSCLC
HS 578T breast = tested on: HS 578T breast
HT29 colon = tested on: HT29 colon
IGROV1 ovarian = tested on: IGROV1 ovarian
K-562 leukemia = tested on: K-562 leukemia
LOX IMVI melanoma = tested on: LOX IMVI melanoma
MALME-3M melanoma = tested on: MALME-3M melanoma
MCF7 breast = tested on: MCF7 breast
MDA-MB-231 breast = tested on: MDA-MB-231 breast
MDA-MB-435 melanoma = tested on: MDA-MB-435 melanoma
MDA-MB-468 breast = tested on: MDA-MB-468 breast
NCI-H322M lung = tested on: NCI-H322M lung
NCI-H522 lung = tested on: NCI-H522 lung
NCI/ADR-RES ovarian = tested on: NCI/ADR-RES ovarian
OVCAR-3 ovarian = tested on: OVCAR-3 ovarian
OVCAR-4 ovarian = tested on: OVCAR-4 ovarian
OVCAR-5 ovarian = tested on: OVCAR-5 ovarian
OVCAR-8 ovarian = tested on: OVCAR-8 ovarian
PC-3 prostate = tested on: PC-3 prostate
RXF 393 renal = tested on: RXF 393 renal
SF-295 CNS = tested on: SF-295 CNS
SF-539 CNS = tested on: SF-539 CNS
SK-MEL-2 melanoma = tested on: SK-MEL-2 melanoma
SK-MEL-5 melanoma = tested on: SK-MEL-5 melanoma
SN12C renal = tested on: SN12C renal
SNB-19 CNS = tested on: SNB-19 CNS
SNB-75 CNS = tested on: SNB-75 CNS
SR leukemia = tested on: SR leukemia
T-47D breast = tested on: T-47D breast
TK-10 renal = tested on: TK-10 renal
U251 glioblastoma = tested on: U251 glioblastoma
UACC-257 melanoma = tested on: UACC-257 melanoma
UACC-62 melanoma = tested on: UACC-62 melanoma
UO-31 renal = tested on: UO-31 renal

COc1ccc([C@@H](O)c2cc(-c3ncnc4cc(N5CCOCC5)ccc34)c(F)cc2Cl)nn1
GI50 ([…]-0 renal): 2.6 µM
TGI (786-0 renal): 17.8 µM
GI50 (A498 renal): 0.372 µM
TGI (A498 renal): 1.99 µM
GI50 (A549 NSCLC): 2.6 µM
TGI (A549 NSCLC): 12.3 µM
GI50 (ACHN renal): 2.38 µM
TGI (ACHN renal): 16.5 µM
GI50 (BT-549 breast): 1.19 µM
TGI (BT-549 breast): 9.64 µM
GI50 (CAKI-1 renal): 1.19 µM
TGI (CAKI-1 renal): 16 µM
GI50 (COLO 205 colon): 3.52 µM
TGI (COLO 205 colon): 11.1 µM
GI50 (DU-145 prostate): 4.21 µM
TGI (DU-145 prostate): 18.8 µM
GI50 (EKVX NSCLC): 1.54 µM
TGI (EKVX NSCLC): 10.7 µM
GI50 (HCC-2998 colon): 3.21 µM
TGI (HCC-2998 colon): 11.4 µM
GI50 (HCT-116 colon): 3.88 µM
TGI (HCT-116 colon): 16.4 µM
GI50 (HCT-15 colon): 3.49 µM
TGI (HCT-15 colon): 15 µM
GI50 (HL-60(TB) leukemia): 0.522 µM
TGI (HL-60(TB) leukemia): 1.94 µM
GI50 (HOP-92 NSCLC): 0.583 µM
TGI (HOP-92 NSCLC): 5.19 µM
GI50 (HS 578T breast): 0.864 µM
TGI (HS 578T breast): 3.7 µM
GI50 (HT29 colon): 3.36 µM
TGI (HT29 colon): 16.3 µM
GI50 (IGROV1 ovarian): 0.682 µM
TGI (IGROV1 ovarian): 2.45 µM
GI50 (K-562 leukemia): 3.55 µM
TGI (K-562 leukemia): 22 µM
GI50 (LOX IMVI melanoma): 1.81 µM
TGI (LOX IMVI melanoma): 4.44 µM
GI50 (MALME-3M melanoma): 1.66 µM
TGI (MALME-3M melanoma): 10.7 µM
GI50 (MCF7 breast): 0.843 µM
TGI (MCF7 breast): 10.4 µM
GI50 (MDA-MB-231 breast): 3.52 µM
TGI (MDA-MB-231 breast): 37.4 µM
GI50 (MDA-MB-435 melanoma): 5.07 µM
TGI (MDA-MB-435 melanoma): 20.6 µM
GI50 (MDA-MB-468 breast): 1.03 µM
TGI (MDA-MB-468 breast): 4.31 µM
GI50 (NCI-H322M lung): 3.88 µM
TGI (NCI-H322M lung): 21 µM
GI50 (NCI-H522 lung): 1.29 µM
TGI (NCI-H522 lung): 8.26 µM
GI50 (NCI/ADR-RES ovarian): 3.97 µM
TGI (NCI/ADR-RES ovarian): 17.6 µM
GI50 (OVCAR-3 ovarian): 1.17 µM
TGI (OVCAR-3 ovarian): 9.62 µM
GI50 (OVCAR-4 ovarian): 5.02 µM
TGI (OVCAR-4 ovarian): 26.2 µM
GI50 (OVCAR-5 ovarian): 3.47 µM
TGI (OVCAR-5 ovarian): 21 µM
GI50 (OVCAR-8 ovarian): 3.97 µM
TGI (OVCAR-8 ovarian): 22.4 µM
GI50 (PC-3 prostate): 0.889 µM
TGI (PC-3 prostate): 11.1 µM
GI50 (RXF 393 renal): 0.553 µM
TGI (RXF 393 renal): 3.3 µM
GI50 (SF-295 CNS): 1.87 µM
TGI (SF-295 CNS): 12.6 µM
GI50 (SF-539 CNS): 3.38 µM
TGI (SF-539 CNS): 28.4 µM
GI50 (SK-MEL-2 melanoma): 16.1 µM
TGI (SK-MEL-2 melanoma): 31.2 µM
GI50 (SK-MEL-5 melanoma): 1.61 µM
TGI (SK-MEL-5 melanoma): 5.92 µM
GI50 (SN12C renal): 1.47 µM
TGI (SN12C renal): 17.1 µM
GI50 (SNB-19 CNS): 7.21 µM
TGI (SNB-19 CNS): 28.3 µM
GI50 (SNB-75 CNS): 0.668 µM
TGI (SNB-75 CNS): 3.15 µM
GI50 (SR leukemia): 6.08 µM
TGI (SR leukemia): 19.5 µM
GI50 (T-47D breast): 0.531 µM
TGI (T-47D breast): 2.61 µM
GI50 (TK-10 renal): 2.79 µM
TGI (TK-10 renal): 14.6 µM
GI50 (U251 glioblastoma): 8.43 µM
TGI (U251 glioblastoma): 26.1 µM
GI50 (UACC-257 melanoma): 3.59 µM
TGI (UACC-257 melanoma): 17.8 µM
GI50 (UACC-62 melanoma): 1.16 µM
TGI (UACC-62 melanoma): 11.8 µM
GI50 (UO-31 renal): 1.95 µM
TGI (UO-31 renal): 11.6 µM
